Data from patent US10299478B2, “Pyrazolyltriazolylpyridines as pesticides” (BAYER ANIMAL HEALTH GMBH, priority 2014, dated 2019).

Key:
Assay type in all cases: in vivo
[1] = tested on: adult dog ticks (Rhipicephalus sanguineus); test: Rhipicephalus sanguineus in vitro contact test with adult brown dog ticks; details: coated test tube, after 48 h
Description: Rhipicephalus sanguineus-In Vitro Contact Tests with Adult Brown Dog Ticks
(§1) For the coating of the test tubes, 9 mg of active compound are first dissolved in 1 ml of acetone p.a. and then diluted to the desired concentration with acetone p.a. 250 μl of the solution are distributed homogeneously on the inner walls and the base of a 25 ml test tube by turning and rocking on an orbital shaker (rocking rotation at 30 rpm for 2 h). With 900 ppm active compound solution and internal surface 44.7 cm^2, given homogeneous distribution, an area-based dose of 5 μg/cm^2 is achieved.
After the solvent has evaporated off, the tubes are populated with 5-10 adult dog ticks (Rhipicephalus sanguineus), sealed with a perforated plastic lid and incubated in a horizontal position in the dark at room temperature and ambient humidity. After 48 h, efficacy is determined. To this end, the ticks are knocked to the floor of the tube and incubated on a hotplate at 45-50° C. for not more than 5 min. Ticks which remain motionless on the floor or move in such an uncoordinated manner that they are unable to deliberately avoid the heat by climbing upwards are considered to be dead or moribund.
An efficacy of 100% means that all the ticks were dead or moribund. 0% efficacy means that none of the ticks had been harmed.

[2] = tested on: greenhouse red spider mite (Tetranychus urticae); test: Tetranychus urticae spray test, OP-resistant; details: application rate 100 g/ha; bean leaf discs sprayed; after 6 days
Description: Tetranychus urticae-Spray Test, OP-Resistant
(§2) • Solvent: 78.0 parts by weight of acetone • 1.5 parts by weight of dimethylformamide • Emulsifier: alkylaryl polyglycol ether
(§3) To produce an appropriate active ingredient formulation, 1 part by weight of active ingredient is dissolved using the specified parts by weight of solvent and made up with water containing an emulsifier concentration of 1000 ppm until the desired concentration is attained. To produce further test concentrations, the preparation is diluted with emulsifier-containing water.
Discs of bean leaves (Phaseolus vulgaris) infested by all stages of the greenhouse red spider mite (Tetranychus urticae) are sprayed with an active ingredient formulation of the desired concentration.
After 6 days, efficacy in % is determined. 100% means that all the spider mites have been killed; 0% means that no spider mites have been killed.

[3] = tested on: Tick nymphs (Amblyomma hebraeum); test: Amblyomma hebaraeum test; details: application rate 100 ppm; nymphs immersed for one minute; after 42 days
Description: (§4) • Solvent: dimethyl sulphoxide
(§5) To produce an appropriate active ingredient formulation, 10 mg of active ingredient are mixed with 0.5 ml of dimethyl sulphoxide, and the concentrate is diluted with water to the desired concentration.
Tick nymphs (Amblyomma hebraeum) are placed into perforated plastic beakers and immersed in the desired concentration for one minute. The ticks are transferred on filter paper into a Petri dish and stored in a climate-controlled cabinet.
After 42 days, the kill in % is determined. 100% means that all of the ticks have been killed; 0% means that none of the ticks have been killed.

[4] = tested on: unfed adult cat fleas (Ctenocephalides felis); test: Ctenocephalides felis oral test; details: application rate 100 ppm, in citrated cattle blood, after 2 days
Description: Ctenocephalides felis-Oral Test
as §4
To produce a suitable preparation of active compound, 10 mg of active compound are mixed with 0.5 ml of dimethyl sulphoxide. Dilution with citrated cattle blood gives the desired concentration.
About 20 unfed adult cat fleas (Ctenocephalides felis) are placed into a chamber which is closed at the top and bottom with gauze. A metal cylinder whose bottom end is closed with parafilm is placed onto the chamber. The cylinder contains the blood/active compound preparation, which can be imbibed by the fleas through the parafilm membrane.
After 2 days, the kill in % is determined. 100% means that all of the fleas have been killed; 0% means that none of the fleas have been killed.

[5] = tested on: engorged adult female cattle ticks (Boophilus microplus); test: Boophilus microplus injection test; details: application rate 20 μg/animal; injection into the abdomen; assessed after 7 days
Description: Boophilus microplus-Injection Test
as §4
To produce an appropriate active ingredient formulation, 10 mg of active ingredient are mixed with 0.5 ml of solvent and the concentrate is diluted with solvent to the desired concentration.
1 μl of the active ingredient solution is injected into the abdomen of 5 engorged adult female cattle ticks (Boophilus microplus). The animals are transferred into dishes and kept in a climate-controlled room.
(§6) Efficacy is assessed after 7 days by laying of fertile eggs. Eggs which are not visibly fertile are stored in a climate-controlled cabinet until the larvae hatch after about 42 days. An efficacy of 100% means that none of the ticks has laid any fertile eggs; 0% means that all the eggs are fertile.

[6] = tested on: larvae of the mustard beetle (Phaedon cochleariae); test: Phaedon cochleariae spray test; details: application rate 100 g/ha; Chinese cabbage leaf discs sprayed; after 7 days
Description: Phaedon cochleariae-Spray Test
as §2, §3
Discs of Chinese cabbage leaves (Brassica pekinensis) are sprayed with an active ingredient formulation of the desired concentration and, after drying, populated with larvae of the mustard beetle (Phaedon cochleariae).
After 7 days, efficacy in % is determined. 100% means that all the beetle larvae have been killed; 0% means that no beetle larvae have been killed.

[7] = tested on: cattle ticks (Boophilus microplus) Parkhurst strain, SP-resistant; test: Boophilus microplus dip test; details: application rate 100 ppm, assessed after 7 days
Description: Boophilus microplus-Dip Test
• Test animals: cattle ticks (Boophilus microplus) Parkhurst strain, SP-resistant • Solvent: dimethyl sulphoxide
10 mg of active ingredient are dissolved in 0.5 ml of dimethyl sulphoxide. For the purpose of producing a suitable formulation, the active compound solution is diluted with water to the concentration desired in each case.
This active ingredient formulation is pipetted into tubes. 8-10 engorged adult female cattle ticks (Boophilus microplus) are transferred into a further tube with holes. The tube is immersed into the active compound preparation, and all the ticks are completely wetted. After the liquid has run out, the ticks are transferred on filter discs into plastic dishes and stored in a climate-controlled room.
as §6

[8] = tested on: L1 larvae of the Australian sheep blowfly (Lucilia cuprina); test: Lucilia cuprina test; details: application rate 100 ppm; minced horsemeat; after 2 days
Description: as §4, §5
About 20 L1 larvae of the Australian sheep blowfly (Lucilia cuprina) are transferred into a test vessel containing minced horsemeat and the active ingredient preparation of the desired concentration.
After 2 days, the kill in % is determined. 100% means that all the larvae have been killed; 0% means that no larvae have been killed.

[9] = tested on: green peach aphid (Myzus persicae); test: Myzus persicae spray test; details: application rate 100 g/ha; Chinese cabbage leaf discs sprayed; after 6 days
Description: Myzus persicae-Spray Test
• Solvent: 78 parts by weight of acetone • 1.5 parts by weight of dimethylformamide • Emulsifier: alkylaryl polyglycol ether
as §3
Discs of Chinese cabbage leaves (Brassica pekinensis) infested by all stages of the green peach aphid (Myzus persicae) are sprayed with an active compound preparation of the desired concentration.
After 6 days, efficacy in % is determined. 100% means that all the aphids have been killed; 0% means that no aphids have been killed.

[10] = tested on: adult houseflies (Musca domestica); test: Musca domestica test; details: application rate 100 ppm; sponge with sugar solution; after 2 days
Description: as §4, §5
Vessels containing a sponge treated with sugar solution and the active ingredient formulation of the desired concentration are populated with 10 adult houseflies (Musca domestica).
After 2 days, the kill in % is determined. 100% means that all of the flies have been killed; 0% means that none of the flies have been killed.

[11] = tested on: adult cat fleas (Ctenocephalides felis); test: Ctenocephalides felis in vitro contact test with adult cat fleas; details: application rate 500 g/ha; coated test tube; after 48 h
Description: Ctenocephalides felis—In Vitro Contact Tests with Adult Cat Fleas
as §1, with “[…]” for “μg/cm^2”
After the solvent has evaporated off, the tubes are populated with 5-10 adult cat fleas (Ctenocephalides felis), sealed with a perforated plastic lid and incubated in a horizontal position at room temperature and ambient humidity. After 48 h, efficacy is determined. To this end, the test tubes are stood upright and the fleas are knocked to the base of the tube. Fleas which remain motionless at the base or move in an uncoordinated manner are considered to be dead or moribund.
100% efficacy means that all the fleas were dead or moribund. 0% efficacy means that no fleas were harmed.

[12] = tested on: caterpillars of the armyworm (Spodoptera frugiperda); test: Spodoptera frugiperda spray test; details: application rate 100 g/ha; maize leaf discs sprayed; after 7 days
Description: Spodoptera frugiperda-Spray Test
as §2, §3
Leaf discs of maize (Zea mays) are sprayed with an active ingredient formulation of the desired concentration and, after drying, populated with caterpillars of the armyworm (Spodoptera frugiperda).
After 7 days, efficacy in % is determined. 100% means that all the caterpillars have been killed; 0% means that no caterpillars have been killed.

[13] = tested on: southern root-knot nematode (Meloidogyne incognita); test: Meloidogyne incognita test; details: application rate 20 ppm; lettuce in sand; after 14 days
Description: Meloidogyne incognita Test
• Solvent: 125.0 parts by weight of acetone
To produce an appropriate active ingredient formulation, 1 part by weight of active ingredient is mixed with the stated amount of solvent and the concentrate is diluted with water to the desired concentration.
Vessels are filled with sand, active ingredient solution, an egg/larvae suspension of the southern root-knot nematode (Meloidogyne incognita) and lettuce seeds. The lettuce seeds germinate and the plants develop. The galls develop on the roots.
After 14 days, the nematicidal efficacy in % is determined by the formation of galls. 100% means that no galls were found; 0% means that the number of galls on the treated plants corresponds to the untreated control.

SMILES | efficacy (ticks dead or moribund) ([1]; application rate 100 g/ha) | efficacy (spider mites killed) [2] | efficacy (kill of ticks) [3] | efficacy (kill of fleas) [4] | efficacy (laying of fertile eggs) [5] | efficacy (beetle larvae killed) [6] | efficacy (laying of fertile eggs) [7] | efficacy (kill of larvae) [8] | efficacy (aphids killed) [9] | efficacy (kill of flies) [10] | efficacy (fleas dead or moribund) [11] | efficacy (caterpillars killed) [12] | nematicidal efficacy (formation of galls) [13] | efficacy (ticks dead or moribund) ([1]; application rate 20 g/ha)
Cn1nc(C(F)(F)C(F)(F)F)c(C(F)(F)F)c1-n1cc(-c2cnc(Cl)c(C(=O)NC3(C#N)CC3)c2)nn1 [Ia-1] | 100% | 90% | 100% | 100% | 100% | 100% | 100% |  |  |  |  |  |  | 
Cc1ncc(-c2cn(-c3c(C(F)(F)F)c(C(F)(F)C(F)(F)F)nn3C)nn2)cc1C(=O)NC1(C#N)CC1 [Ia-3] | 100% | 100% |  | 100% | 100% | 100% |  | 95% | 100% | 80% | 100% |  |  | 
Cc1ncc(-c2cn(-c3c(C(F)(F)F)c(C(F)(F)C(F)(F)F)nn3C)nn2)cc1C(=O)NC1CC1 [Ia-4] | 100% | 100% | 100% | 100% | 100% | 100% | 100% | 100% | 90% | 100% | 100% | 100% | 90% | 
COc1ncc(-c2cn(-c3c(C(F)(F)F)c(C(F)(F)C(F)(F)F)nn3C)nn2)cc1C(=O)NC1(C#N)CC1 [Ia-5] | 100% |  |  | 100% | 100% | 100% |  | 100% |  | 100% |  | 100% |  | 
Cn1nc(C(F)(F)C(F)(F)F)c(C(F)(F)F)c1-n1cc(-c2cnc(Cl)c(C(=O)NC3CC3)c2)nn1 [Ia-2, 2-Chloro-N-cyclopropyl-5-[1-[2-methyl-5-(1,1,2,2,2-pentafluoroethyl)-4-(trifluoromethyl)pyrazol-3-yl]triazol-4-yl]pyridine-3-carboxamide] | 100% | 100% | 100% | 100% | 100% | 100% | 100% | 100% | 90% | 100% |  | 100% |  | 
COc1ncc(-c2cn(-c3c(C(F)(F)F)c(C(F)(F)C(F)(F)F)nn3C)nn2)cc1C(=O)NC1CC1 [Ia-6] |  |  |  | 100% | 100% | 100% |  | 100% |  | 100% |  |  |  | 80%
